In US7135457B1, “Random peptides that bind to gastro-intestinal tract (GIT) transport receptors and related methods” (Cytogen Corporation, priority 1997, dated 2006):
Peptide text beside a SMILES is read from it. * marks the point of attachment. Dansyl = CN(C)c1cccc2c(S(=O)(=O)*)cccc12

Experiments:
[1] = system: P100 membrane fractions derived from Caco-2 cells; assay: Dansylated peptide ELISA on P100: PAX2 and HAX42 peptides relative binding; settings: PAX2 peptides, ratio to ZElan021 (HAX42 = 1.00); for Binding value at 20 μg/ml: first 20 μg/ml column
[2] = system: P100 membrane fractions derived from Caco-2 cells; assay: as above; settings: ratio to ZElan021 (HAX42 = 1.00)
[3] = Drug potency, peptide loading and size of coacervated particles; type: physicochemical; settings: formulation 1 particles (coacervation), blend; for Insulin (insulin potency): coated with the named peptide; for Peptide (level of peptide coated onto the particles): measured by fluorescence
BSA = BSA (Bos taurus, UniProt P02769); assay: Phage ELISA on BSA (background control protein); type: binding
Chain of BSA (P02769 25-607): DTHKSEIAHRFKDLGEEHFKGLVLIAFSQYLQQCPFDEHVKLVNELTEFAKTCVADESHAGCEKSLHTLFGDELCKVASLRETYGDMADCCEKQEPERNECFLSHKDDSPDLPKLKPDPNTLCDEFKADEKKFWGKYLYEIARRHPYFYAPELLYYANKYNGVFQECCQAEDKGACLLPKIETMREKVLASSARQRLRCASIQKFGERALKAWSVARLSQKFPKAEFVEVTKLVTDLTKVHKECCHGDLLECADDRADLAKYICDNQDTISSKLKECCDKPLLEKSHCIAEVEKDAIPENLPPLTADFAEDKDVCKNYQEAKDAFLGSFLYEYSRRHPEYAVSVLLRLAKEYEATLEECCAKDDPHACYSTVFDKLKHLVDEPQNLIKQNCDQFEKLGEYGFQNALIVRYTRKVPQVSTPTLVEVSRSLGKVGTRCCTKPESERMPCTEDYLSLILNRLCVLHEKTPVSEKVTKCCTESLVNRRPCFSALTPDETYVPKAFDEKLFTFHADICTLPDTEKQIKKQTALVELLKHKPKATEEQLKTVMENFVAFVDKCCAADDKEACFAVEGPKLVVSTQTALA
Description: 96 well plates were coated overnight with GIT receptor, BSA and, optionally, IDE (insulin degrading enzyme, an irrelevant His-fusion protein) or hTF. The plates were blocked for one hour with 0.5% BSA-PBS. After clarification, the amplified phage were diluted 1:100 in 1% BSA plus 0.05% Tween 20 in PBS and added to the plates. Following incubation of the plates on a rotator for 1 to 2 hours, the plates were washed 5 times with 1% BSA plus 0.05% Tween 20 in PBS. Dilute anti-M13-HRP conjugate (anti-M13 antibody linked to horse radish peroxidase (HRP)) was added to all the wells and the plate was incubated for one hour on a rotator. After the plates were washed 5 times, as described above, TMB substrate was added to the wells. The plates were read at 650 nm absorbance.

[4] = for presence in the systemic circulation (in words): text summary of HPT1 and hPEPT1 pools; for transport from the GIT closed loop into the portal circulation (in words): text summary of hSI, D2H, HPT1, hPEPT1 pools; for presence in the intestine samples or fractions (in words): text summary of the four pools
Description: In particular, phages selected in vitro to each receptor or binding site located in the GIT were amplified in E. coli, PEG-precipitated, resuspended in TBS and the titer of each phage sample was determined by plaquing in E. coli as described above. […] Using the in situ loop model described above, 0.5 ml of preselected phage library solution was injected into the tied-off portion of the duodenum/jejunum. Blood was collected into heparinized tubes from the portal vein at 0, 15, 30, 45 and 60 minutes. A blood sample was taken from the systemic circulation at the end of the experiment. Similarly, the portion of the duodenum/jejunum used for phage injection was taken at the end of the experiment.
Thirty microliters of the collected portal blood (neat and 10^−2, 10^−4, 10^−6 dilutions) was added to 30 μl E. coli K91Kan cells (overnight culture) and incubated at 37° C. for 10 min. Subsequently, 3 ml of top agarose was added and the samples were plated for plaques. One hundred microliters of the collected portal blood was added to 100 μl of E. coli K91Kan. Five milliliters of LB medium was then added and the samples were incubated at 37° C. overnight in a rotating microbial incubator. The E. coli was removed by centrifugation and the amplified phage supernatant samples were either titered directly or were PEG-precipitated, resuspended in TBS and titered. Following titration of the amplified phage, samples containing phage from each set of animals were combined, adjusting the titer of each sample to the same titer, and were plated for plaques on LB agar plates (22 cm^2 square plates). Either 12,000 or 24,000 phage were plated for plaques.
Thirty microliters of the collected systemic blood (neat and 10^−2, 10^−4, 10^−6 dilutions) was added to E. coli K91Kan cells, incubated at 37° C. for 10 min. Three ml of top agarose was then added and the samples were plated for plaques. One hundred microliters of the collected systemic blood was added to 100 μl of E. coli K91Kan, incubated at 37° C. for 10 min. Five milliliters of LB medium was then added and the samples were incubated at 37° C. overnight in a rotating microbial incubator. The E. coli was removed by centrifugation and the amplified phage supernatant samples were either titered directly or were PEG-precipitated, resuspended in TBS and titered. Following titration of the amplified phage, samples containing phage from each set of animals were combined, adjusting the titer of each sample to the same titer, and were plated for plaques on LB agar plates (22 cm^2 square plates). Either 12,000 or 24,000 phage were plated for plaques. The intestinal tissue portion used in each closed loop was excised. […] Alternatively, the tissue (in PBS supplemented with protease inhibitors) was homogenized in an Ultra Thorex homogenizer, washed 3 times in PBS containing protease inhibitors and resuspended in PBS containing protease inhibitors (Int-G samples). In each case, serial dilutions (neat and 10^−2, 10^−4, 10^−6 dilutions) of the tissue homogenate was titered in E. coli.
The phage amplified from the portal blood, systemic blood and intestinal tissue was plated for plaques. […] The filters were air-dried, and the DNA was cross-linked to the filter (UV crosslinking: 2 min, high setting). The filters were incubated in pre-hybridization buffer (6×SSC, 5×Denhardt's solution, 0.1% SDS, 20 μg/ml yeast tRNA) at 40° C.-45° C. for at least 60 min.
Synthetic oligonucleotides, (22-mers), complimentary to regions coding for the receptor or binding sites used to create the preselected phage library, were synthesized (see Table 14 below).
The oligonucleotides (5 pmol) were 5′ end labelled with ^32P-ATP and T4 polynucleotide kinase and approximately 2.5 pmol of labelled oligonucleotide was used in hybridization studies. […] The filters were air-dried and exposed for autoradiography for 15 hours, 24 hours or 72 hours.
Hybridization data for pools from each receptor group of rats was compiled.

[5] = system: fixed Caco-2 or C2BBe1 cells; assay: ELISA of GST fusion proteins on fixed Caco-2 or C2BBe1 cells; type: binding
Description: Fixed Caco-2, C2BBe1, and A431 cell plates were prepared by growing cells on tissue culture treated microtiter plates. When cells were confluent, plates were fixed with 10% formaldehyde, washed twice with PBS and stored with 0.5% BSA-PBS at −20° C. […] The standard ELISA procedure was followed at this point.
The standard ELISA procedure was modified as follows. GST proteins were diluted to an appropriate concentration in PBS containing 1% BSA and 0.05% Tween20 (1% BPT), titered and incubated one hour at room temperature. Following five washes an anti-GST monoclonal antibody was added (Sigma, St. Louis Clone GST-2 diluted 1:10,000 in 1% BPT) and incubated one hour. After five more washes goat anti-mouse IgG2b-HRP was added (Southern Biotechnology Associates Inc., Birmingham, Ala., diluted 1:4000 in 1% BPT) and incubated one hour. After five washes plates were developed with TMB peroxidase substrate (Kirkegard and Perry, Gaithersburg, Md.). All data is presented with background binding subtracted.

fixed Caco-2 cells = assay: Effect of thrombin cleavage on binding of GST-peptide fusions to fixed Caco-2 cells
Description: Binding of intact and thrombin-cleaved GST-peptide fusions to fixed Caco-2 cells was compared.
Thirty micrograms of each GST-peptide was treated with bovine thrombin (1μ/ml; 0.4 NIH units; Sigma CN.T9681) for 18 h at room temperature in 20 mM Tris-HCl pH8.0, 150 mM NaCl, 2.5 mM CaCl2. Controls were similarly treated without addition of thrombin. Ten micrograms of each GST-peptide fusion was removed for PAGE analysis, and 10 μg of fusions were added in duplicate to the fixed Caco-2 cells before 5-fold serial dilutions (1% BPT diluent). The fusions were allowed to bind for 1 h at room temperature. Following 6 washes with 1% BPT, binding was assayed by ELISA.

Compound: CC(C)C[C@H](NC(=O)[C@H](CCCNC(=N)N)NC(=O)[C@H](C)NC(=O)[C@H](CC(N)=O)NC(=O)[C@H](Cc1c[nH]cn1)NC(=O)[C@H](CO)NC(=O)[C@H](CO)NC(=O)[C@@H](N)CCCCNS(=O)(=O)c1cccc2c(N(C)C)cccc12)C(=O)N[C@@H](CCCNC(=N)N)C(=O)N[C@H](C(=O)N[C@@H](CCCNC(=N)N)C(N)=O)[C@@H](C)O [ZElan077] (H-K(Dansyl)SSHNARLRTR-NH2)
- Binding value at 50 μg/ml (Southern Ab) [1]: 0.52
- Binding value at 20 μg/ml [1]: 0.20
- Binding value at 50 μg/ml ([1]; first 50 μg/ml column): 0.76
- Binding value at 50 μg/ml ([1]; second 50 μg/ml column): 0.54
- Binding value at 50 μg/ml (Jackson Ab) [2]: 0.73

Compound: CC(C)C[C@H](NC(=O)[C@H](C)NC(=O)[C@H](CCCNC(=N)N)NC(=O)[C@H](CC(N)=O)NC(=O)[C@H](Cc1c[nH]cn1)NC(=O)[C@H](CO)NC(=O)[C@H](CO)NC(=O)[C@@H](N)CCCCNS(=O)(=O)c1cccc2c(N(C)C)cccc12)C(=O)N[C@@H](CCCNC(=N)N)C(=O)N[C@H](C(=O)N[C@@H](CCCNC(=N)N)C(N)=O)[C@@H](C)O [ZElan078] (H-K(Dansyl)SSHNRALRTR-NH2)
- Binding value at 50 μg/ml (Southern Ab) [1]: 0.47
- Binding value at 20 μg/ml [1]: 0.11
- Binding value at 50 μg/ml ([1]; first 50 μg/ml column): 0.87
- Binding value at 50 μg/ml ([1]; second 50 μg/ml column): 0.69
- Binding value at 50 μg/ml (Jackson Ab) [2]: 0.68

Compound: C[C@H](NC(=O)[C@H](CCCNC(=N)N)NC(=O)[C@H](CCCNC(=N)N)NC(=O)[C@H](CC(N)=O)NC(=O)[C@H](Cc1c[nH]cn1)NC(=O)[C@H](CO)NC(=O)[C@H](CO)NC(=O)[C@@H](N)CCCCNS(=O)(=O)c1cccc2c(N(C)C)cccc12)C(=O)N[C@@H](CCCNC(=N)N)C(=O)N[C@H](C(=O)N[C@@H](CCCNC(=N)N)C(N)=O)[C@@H](C)O [ZElan079] (H-K(Dansyl)SSHNRRARTR-NH2)
- Binding value at 50 μg/ml (Southern Ab) [1]: 0.53
- Binding value at 20 μg/ml [1]: 0.31
- Binding value at 50 μg/ml ([1]; first 50 μg/ml column): 0.97
- Binding value at 50 μg/ml ([1]; second 50 μg/ml column): 0.68
- Binding value at 50 μg/ml (Jackson Ab) [2]: 0.83

Compound: CC(C)C[C@H](NC(=O)[C@H](CCCNC(=N)N)NC(=O)[C@H](CCCNC(=N)N)NC(=O)[C@H](CC(N)=O)NC(=O)[C@H](Cc1c[nH]cn1)NC(=O)[C@H](CO)NC(=O)[C@H](CO)NC(=O)[C@@H](N)CCCCNS(=O)(=O)c1cccc2c(N(C)C)cccc12)C(=O)N[C@@H](C)C(=O)N[C@H](C(=O)N[C@@H](CCCNC(=N)N)C(N)=O)[C@@H](C)O [ZElan080] (H-K(Dansyl)SSHNRRLATR-NH2)
- Binding value at 50 μg/ml (Southern Ab) [1]: 0.38
- Binding value at 20 μg/ml [1]: 0.23
- Binding value at 50 μg/ml ([1]; first 50 μg/ml column): 0.84
- Binding value at 50 μg/ml ([1]; second 50 μg/ml column): 0.45
- Binding value at 50 μg/ml (Jackson Ab) [2]: 0.67

Compound: RVGQCTDSDVRRPWARSCAHQGCGAGTRNSHGCITRPLRQASAH [SNi10]
- Insulin (insulin potency) [3]: 59.5 mg/g
- Peptide (level of peptide coated onto the particles) [3]: 1.75 µL/mg
- BSA (BSA; Table 1, phage panned on hSI): 0.051 OD

Compound: RYKHDIGCDAGVDKKSSSVRGGCGAHSSPPRAGRGPRGTMVSRL [DCX8]
- Insulin (insulin potency) [3]: 59.1 mg/g
- Peptide (level of peptide coated onto the particles) [3]: 1.87 µL/mg
- BSA (BSA; Table 3): 0.063 OD

Compound: SARDSGPAEDGSRAVRLNGVENANTRKSSRSNPRGRRHP [Peptide P31]
- Insulin (insulin potency) [3]: 67.0 mg/g
- Peptide (level of peptide coated onto the particles) [3]: 1.22 µL/mg
- presence in the systemic circulation (in words) [4]: found in the systemic circulation
- transport from the GIT closed loop into the portal circulation (in words) [4]: found in the portal circulation
- presence in the intestine samples or fractions (in words) [4]: preferential binding
- BSA (BSA; Table 4): 0.075 OD

Compound: SDHALGTNLRSDNAKEPGDYNCCGNGNSTGRKVFNRRRPSAIPT [HAX42]
- Insulin (insulin potency) [3]: 55.9 mg/g
- Peptide (level of peptide coated onto the particles) [3]: 2.93 µL/mg
- presence in the systemic circulation (in words) [4]: found in the portal and systemic circulation
- transport from the GIT closed loop into the portal circulation (in words) [4]: found in the portal and systemic circulation
- BSA (BSA; Table 5): 0.071 OD

Compound: SQGSKQCMQYRTGRLTVGSEYGCGMNPARHATPAYPARLLPRYR [DCX11]
- transport from the GIT closed loop into the portal circulation (in words) [4]: preferably transported
- presence in the intestine samples or fractions (in words) [4]: found in the intestinal samples fractions
- BSA (BSA; Table 3): 0.071 OD

Compound: gst-ENANTRKSSRSNPRGRRHP [GST-P31.103]
- binding of truncated GST fusion compared with full-length, fixed Caco-2 cells ([5]; Caco-2): bound almost as well as full-length P31
- effect of thrombin cleavage on detection of binding to fixed Caco-2 cells (fixed Caco-2 cells; Caco-2): significantly reduced

Compound: gst-RVGQCTDSDVRRPWARSCAHQGCGAGTRNSHGCITRPLRQASAH [GST-SNi10]
- binding to fixed Caco-2 or C2BBe1 cells relative to GST control ([5]; anti-GST ELISA): bound
- effect of thrombin cleavage on detection of binding to fixed Caco-2 cells (fixed Caco-2 cells; thrombin 18 h at room temperature): significantly reduced
